Key:
CPC-N = test: cells; assay type: functional, cell-based; conditions: Homo sapiens;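 also: growth inhibition of CPC-N cells, with a cell viability assay as the readout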
Description: SANGER: Inhibition of human CPC-N cell growth in a cell viability assay.

DMS-153 = test: cells; assay type: functional, cell-based; conditions: Homo sapiens
Description: SANGER: Inhibition of human DMS-153 cell growth in a cell viability assay.

Daudi = test: cells; assay type: functional, cell-based; conditions: Homo sapiens;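 also: growth inhibition of Daudi cells, read out by a viability assay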
Description: SANGER: Inhibition of human Daudi cell growth in a cell viability assay.

EB2 = test: cells; assay type: functional, cell-based; conditions: Homo sapiens;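 also: growth inhibition of EB2 cells, read out with a cell viability assay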
Description: SANGER: Inhibition of human EB2 cell growth in a cell viability assay.

ECC12 = test: cells; assay type: functional, cell-based; conditions: Homo sapiens
Description: SANGER: Inhibition of human ECC12 cell growth in a cell viability assay.

EVSA-T = test: cells; assay type: functional, cell-based, Homo sapiens; conditions: Homo sapiens, EVSA-T;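 also: growth inhibition of EVSA-T cells, read out with a cell viability assay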
Description: SANGER: Inhibition of human EVSA-T cell growth in a cell viability assay.

HCC1599 = test: cells; assay type: functional, cell-based; conditions: Homo sapiens;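 also: growth inhibition of HCC1599 cells, read out in a cell viability assay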
Description: SANGER: Inhibition of human HCC1599 cell growth in a cell viability assay.

IMR-5 = test: cells; assay type: functional, cell-based; conditions: Homo sapiens;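 also: growth inhibition of human IMR-5 cells, read out with a cell viability assay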
Description: SANGER: Inhibition of human IMR-5 cell growth in a cell viability assay.

JIYOYE = test: cells; assay type: functional, cell-based; conditions: Homo sapiens
Description: SANGER: Inhibition of human JiyoyeP-2003 cell growth in a cell viability assay.

KARPAS-422 = test: cells; assay type: functional, cell-based; conditions: Homo sapiens
Description: SANGER: Inhibition of human KARPAS-422 cell growth in a cell viability assay.

Kasumi 1 = test: cells; assay type: functional, cell-based; conditions: Homo sapiens;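 also: growth inhibition of human Kasumi-1 cells, read out by a cell viability assay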
Description: SANGER: Inhibition of human KASUMI-1 cell growth in a cell viability assay.

KMS-12-PE = test: cells; assay type: functional, cell-based; conditions: Homo sapiens;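 also: growth inhibition of human KMS-12-PE cells, measured with a cell viability assay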
Description: SANGER: Inhibition of human KMS-12-PE cell growth in a cell viability assay.

L-540 = test: cells; assay type: functional, cell-based; conditions: Homo sapiens;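 also: growth inhibition of the human L-540 cell line, read out with a viability assay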
Description: SANGER: Inhibition of human L-540 cell growth in a cell viability assay.

LC-1F = test: cells; assay type: functional, cell-based; conditions: Homo sapiens;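 also: growth inhibition of human LC-1F cells, read out with a cell viability assay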
Description: SANGER: Inhibition of human LC-1F cell growth in a cell viability assay.

LP-1 = test: cells; assay type: functional, cell-based; conditions: Homo sapiens;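 also: growth inhibition of human LP-1 cells, with the read-out taken from a cell viability assay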
Description: SANGER: Inhibition of human LP-1 cell growth in a cell viability assay.

MOLT-13 = test: cells; assay type: functional, cell-based; conditions: Homo sapiens;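 also: IC50 for suppression of MOLT-13 cell growth, read out with a cell viability assay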
Description: SANGER: Inhibition of human MOLT-13 cell growth in a cell viability assay.

MRK-nu-1 = test: cells; assay type: functional, cell-based; conditions: Homo sapiens;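 also: cell viability assay measuring growth suppression of human MRK-nu-1 cells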
Description: SANGER: Inhibition of human MRK-nu-1 cell growth in a cell viability assay.

NB1 = test: cells; assay type: functional, cell-based; conditions: Homo sapiens;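 also: reduction of NB1 cell proliferation, read out with a viability assay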
Description: SANGER: Inhibition of human NB1 cell growth in a cell viability assay.

NCCIT = test: SANGER: Inhibition of human NCCIT cell growth in a cell viability assay.; assay type: functional, cell-based
NCI-H1417 = test: cells; assay type: functional, cell-based; conditions: Homo sapiens;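 also: human NCI-H1417 cells, growth inhibition determined with a cell viability readout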
Description: SANGER: Inhibition of human NCI-H1417 cell growth in a cell viability assay.

NCI-H1436 = test: cells; assay type: functional, cell-based; conditions: Homo sapiens;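 also: growth suppression of human NCI-H1436 cells, determined with a cell viability readout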
Description: SANGER: Inhibition of human NCI-H1436 cell growth in a cell viability assay.

NCI-H1522 = test: cells; assay type: functional, cell-based; conditions: Homo sapiens;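 also: growth inhibition of NCI-H1522 cells, read out with a cell viability assay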
Description: SANGER: Inhibition of human NCI-H1522 cell growth in a cell viability assay.

NCI-H1694 = test: cells; assay type: functional, cell-based; conditions: Homo sapiens;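 also: cell viability assay measuring inhibition of growth in human NCI-H1694 cells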
Description: SANGER: Inhibition of human NCI-H1694 cell growth in a cell viability assay.

NCI-H1882 = test: cells; assay type: functional, cell-based; conditions: Homo sapiens;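 also: growth inhibition of the cell line, determined with a viability assay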
Description: SANGER: Inhibition of human NCI-H1882 cell growth in a cell viability assay.

NCI-H2081 = test: cells; assay type: functional, cell-based; conditions: Homo sapiens;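 also: growth inhibition of human NCI-H2081 cells, read out with a cell viability assay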
Description: SANGER: Inhibition of human NCI-H2081 cell growth in a cell viability assay.

NCI-H2196 = test: cells; assay type: functional, cell-based; conditions: Homo sapiens;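 also: cell viability assay used as the readout of growth inhibition in NCI-H2196 cells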
Description: SANGER: Inhibition of human NCI-H2196 cell growth in a cell viability assay.

NCI-H719 = test: cells; assay type: functional, cell-based; conditions: Homo sapiens;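 also: growth inhibition of the cultured cell line, read out with a viability assay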
Description: SANGER: Inhibition of human NCI-H719 cell growth in a cell viability assay.

NCI-H748 = test: cells; assay type: functional, cell-based; conditions: Homo sapiens;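 also: growth inhibition of NCI-H748 cells, measured by a cell viability assay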
Description: SANGER: Inhibition of human NCI-H748 cell growth in a cell viability assay.

PF-382 = test: cells; assay type: functional, cell-based; conditions: Homo sapiens
Description: SANGER: Inhibition of human PF-382 cell growth in a cell viability assay.

RL95-2 = test: cells; assay type: functional, cell-based; conditions: Homo sapiens;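 also: RL95-2 growth inhibition determined through a cell viability readout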
Description: SANGER: Inhibition of human RL95-2 cell growth in a cell viability assay.

RPMI-6666 = test: cells; assay type: functional, cell-based; conditions: Homo sapiens
Description: SANGER: Inhibition of human RPMI-6666 cell growth in a cell viability assay.

RPMI 8402 = test: SANGER: Inhibition of human RPMI-8402 cell growth in a cell viability assay.; assay type: functional, cell-based
SCLC-21H = test: cells; assay type: functional, cell-based; conditions: Homo sapiens;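 also: growth inhibition of cultured human SCLC-21H cells, read out with a cell viability assay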
Description: SANGER: Inhibition of human SCLC-21H cell growth in a cell viability assay.

SU-DHL-1 = test: SANGER: Inhibition of human SU-DHL-1 cell growth in a cell viability assay.; assay type: functional, cell-based
SUP-T1 = test: cells; assay type: functional, cell-based; conditions: Homo sapiens;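 also: growth inhibition of human SUP-T1 cells, read out as cell viability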
Description: SANGER: Inhibition of human SUP-T1 cell growth in a cell viability assay.

TALL-1 = test: cells; assay type: functional, cell-based; conditions: Homo sapiens;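 also: growth inhibition of cultured human TALL-1 cells, read out by a cell viability assay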
Description: SANGER: Inhibition of human TALL-1 cell growth in a cell viability assay.

ARH-77 = test: cells; assay type: functional, cell-based; conditions: Homo sapiens;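 also: growth inhibition of ARH-77 cells, read out by a cell viability assay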
Description: SANGER: Inhibition of human ARH-77 cell growth in a cell viability assay.

BL-41 = test: cells; assay type: functional, cell-based; conditions: Homo sapiens;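 also: growth inhibition of human BL-41 cells, read out with a cell viability assay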
Description: SANGER: Inhibition of human BL-41 cell growth in a cell viability assay.

BL-70 = test: SANGER: Inhibition of human BL-70 cell growth in a cell viability assay.; assay type: functional, cell-based
CA46 = test: cells; assay type: functional, cell-based; conditions: Homo sapiens;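 also: growth inhibition of human CA46 cells, read out by a cell viability assay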
Description: SANGER: Inhibition of human CA46 cell growth in a cell viability assay.

TE-441-T = test: cells; assay type: functional, cell-based; conditions: Homo sapiens
Description: SANGER: Inhibition of human TE-441-T cell growth in a cell viability assay.

UACC-812 = test: cells; assay type: functional, cell-based; conditions: Homo sapiens
Description: SANGER: Inhibition of human UACC-812 cell growth in a cell viability assay.

CMK = test: cells; assay type: functional, cell-based; conditions: Homo sapiens;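 also: growth inhibition of CMK cells, read out as cell viability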
Description: SANGER: Inhibition of human CMK cell growth in a cell viability assay.

For `CCc1nc(N)nc(N)c1-c1ccc(Cl)cc1` [PYRIMETHAMINE], the IC50 (CPC-N) was greater than 20 µM, the IC50 (DMS-153) was greater than 20 µM and the IC50 (Daudi) was greater than 20 µM. The IC50 (EB2) was greater than 20 µM, the IC50 (ECC12) was 2.56 µM and the IC50 (EVSA-T) was greater than 20 µM. For the same compound, the IC50 (HCC1599) was greater than 20 µM, the IC50 (IMR-5) was greater than 20 µM and the IC50 (JIYOYE) was 10.9 µM. For the same compound, the IC50 (KARPAS-422) was 18.2 µM, the IC50 (Kasumi 1) was greater than 20 µM and the IC50 (KMS-12-PE) was greater than 20 µM. The IC50 (L-540) was 10.5 µM, the IC50 (LC-1F) was greater than 20 µM and the IC50 (LP-1) was greater than 20 µM. For the same compound, the IC50 (MOLT-13) was greater than 20 µM, the IC50 (MRK-nu-1) was greater than 20 µM and the IC50 (NB1) was greater than 20 µM. It also gave an IC50 (NCCIT) of 6.93 µM, an IC50 (NCI-H1417) greater than 20 µM and an IC50 (NCI-H1436) greater than 20 µM. The IC50 (NCI-H1522) was greater than 20 µM, the IC50 (NCI-H1694) was greater than 20 µM and the IC50 (NCI-H1882) was greater than 20 µM. For the same compound, the IC50 (NCI-H2081) was greater than 20 µM, the IC50 (NCI-H2196) was greater than 20 µM and the IC50 (NCI-H719) was greater than 20 µM. It also gave an IC50 (NCI-H748) greater than 20 µM, an IC50 (PF-382) of 14.6 µM and an IC50 (RL95-2) of 15.7 µM. For the same compound, the IC50 (RPMI-6666) was 14.6 µM, the IC50 (RPMI 8402) was 8.12 µM and the IC50 (SCLC-21H) was greater than 20 µM. For the same compound, the IC50 (SU-DHL-1) was 10.8 µM, the IC50 (SUP-T1) was greater than 20 µM and the IC50 (TALL-1) was greater than 20 µM. It also gave an IC50 (ARH-77) of 19.5 µM, an IC50 (BL-41) greater than 20 µM and an IC50 (BL-70) of 14.6 µM. The IC50 (CA46) was greater than 20 µM, the IC50 (TE-441-T) was greater than 20 µM and the IC50 (UACC-812) was greater than 20 µM. For the same compound, the IC50 (CMK) was 2.46 µM.

`O=C(/C=C/c1ccccc1)NC(NC(=S)Nc1cccc2cccnc12)C(Cl)(Cl)Cl` (centres undefined) [SALUBRINAL] gave an IC50 (CPC-N) greater than 16 µM, an IC50 (DMS-153) greater than 16 µM and an IC50 (Daudi) of 6.34 µM. The IC50 (EB2) was greater than 16 µM, the IC50 (ECC12) was greater than 16 µM and the IC50 (EVSA-T) was 12.9 µM. It also gave an IC50 (HCC1599) of 12.1 µM, an IC50 (IMR-5) of 13.8 µM and an IC50 (JIYOYE) greater than 16 µM. It also gave an IC50 (KARPAS-422) greater than 16 µM, an IC50 (Kasumi 1) greater than 16 µM and an IC50 (KMS-12-PE) greater than 16 µM. It also gave an IC50 (L-540) of 16 µM, an IC50 (LC-1F) greater than 16 µM and an IC50 (LP-1) of 3.37 µM. It also gave an IC50 (MOLT-13) greater than 16 µM, an IC50 (MRK-nu-1) of 7.75 µM and an IC50 (NB1) greater than 16 µM. For the same compound, the IC50 (NCCIT) was 11.6 µM, the IC50 (NCI-H1417) was greater than 16 µM and the IC50 (NCI-H1436) was greater than 16 µM. The IC50 (NCI-H1522) was greater than 16 µM, the IC50 (NCI-H1694) was greater than 16 µM and the IC50 (NCI-H1882) was greater than 16 µM. For the same compound, the IC50 (NCI-H2081) was greater than 16 µM, the IC50 (NCI-H2196) was greater than 16 µM and the IC50 (NCI-H719) was greater than 16 µM. For the same compound, the IC50 (NCI-H748) was greater than 16 µM, the IC50 (PF-382) was greater than 16 µM and the IC50 (RL95-2) was greater than 16 µM. It also gave an IC50 (RPMI-6666) greater than 16 µM, an IC50 (RPMI 8402) greater than 16 µM and an IC50 (SCLC-21H) greater than 16 µM. It also gave an IC50 (SU-DHL-1) greater than 16 µM, an IC50 (SUP-T1) greater than 16 µM and an IC50 (TALL-1) greater than 16 µM. For the same compound, the IC50 (ARH-77) was greater than 16 µM, the IC50 (BL-41) was 9.78 µM and the IC50 (BL-70) was greater than 16 µM. The IC50 (CA46) was greater than 16 µM, the IC50 (TE-441-T) was greater than 16 µM and the IC50 (UACC-812) was greater than 16 µM. It also gave an IC50 (CMK) of 13.7 µM.

With `CNC(=O)c1cc(Oc2ccc(NC(=O)Nc3ccc(Cl)c(C(F)(F)F)c3)cc2)ccn1` [SORAFENIB] the IC50 (CPC-N) was greater than 4 µM, the IC50 (DMS-153) was greater than 4 µM and the IC50 (Daudi) was greater than 4 µM. The IC50 (EB2) was greater than 4 µM, the IC50 (ECC12) was greater than 4 µM and the IC50 (EVSA-T) was greater than 4 µM. For the same compound, the IC50 (HCC1599) was greater than 4 µM, the IC50 (IMR-5) was greater than 4 µM and the IC50 (JIYOYE) was greater than 4 µM. It also gave an IC50 (KARPAS-422) greater than 4 µM, an IC50 (Kasumi 1) greater than 4 µM and an IC50 (KMS-12-PE) greater than 4 µM. It also gave an IC50 (L-540) of 2.76 µM, an IC50 (LC-1F) greater than 4 µM and an IC50 (LP-1) greater than 4 µM. The IC50 (MOLT-13) was greater than 4 µM, the IC50 (MRK-nu-1) was 3.61 µM and the IC50 (NB1) was greater than 4 µM. It also gave an IC50 (NCCIT) greater than 4 µM, an IC50 (NCI-H1417) greater than 4 µM and an IC50 (NCI-H1436) of 1.22 µM. It also gave an IC50 (NCI-H1522) greater than 4 µM, an IC50 (NCI-H1694) greater than 4 µM and an IC50 (NCI-H1882) greater than 4 µM. For the same compound, the IC50 (NCI-H2081) was greater than 4 µM, the IC50 (NCI-H2196) was greater than 4 µM and the IC50 (NCI-H719) was greater than 4 µM. For the same compound, the IC50 (NCI-H748) was greater than 4 µM, the IC50 (PF-382) was greater than 4 µM and the IC50 (RL95-2) was greater than 4 µM. For the same compound, the IC50 (RPMI-6666) was greater than 4 µM, the IC50 (RPMI 8402) was greater than 4 µM and the IC50 (SCLC-21H) was greater than 4 µM. It also gave an IC50 (SU-DHL-1) greater than 4 µM, an IC50 (SUP-T1) greater than 4 µM and an IC50 (TALL-1) greater than 4 µM. It also gave an IC50 (ARH-77) greater than 4 µM, an IC50 (BL-41) greater than 4 µM and an IC50 (BL-70) greater than 4 µM. It also gave an IC50 (CA46) greater than 4 µM, an IC50 (TE-441-T) greater than 4 µM and an IC50 (UACC-812) greater than 4 µM. For the same compound, the IC50 (CMK) was greater than 4 µM.

From ChEMBL document CHEMBL1201861, “Genomics of Drug Sensitity in Cancer screening data, Wellcome Trust Sanger Institute”
